Results: ChEMBL document CHEMBL1275248, “Two novel antibiotic resistance genes, tet(44) and ant(6)-Ib, are located within a transferable pathogenicity island in Campylobacter fetus subsp. fetus” (2010)

Key:
[1] = Antimicrobial activity against nalidixic acid-resistant Campylobacter fetus subsp. fetus IMD523-06 bovine isolate harboring tet(44) and ant(6)-Ib resistance gene in presence of 5% lacked horse blood; assay type: functional
[2] = Antimicrobial activity against kanamycin-resistant Campylobacter fetus subsp. fetus CA76 harboring deletion in ant(6)-Ib::pCA76 in presence of 5% lacked horse blood; assay type: functional
[3] = Antimicrobial activity against Campylobacter fetus subsp. fetus CA75 harboring pCA75 carrying ant(6)-Ib resistant gene of 1516477 in presence of 5% lacked horse blood; assay type: functional
[4] = Antimicrobial activity against ciprofloxacin-resistant Campylobacter fetus subsp. fetus 1516477 human isolate lacking tet(44) and ant(6)-Ib resistance genes in presence of 5% lacked horse blood
[5] = Antimicrobial activity against Campylobacter fetus subsp. fetus CA73 harboring pCA73 carrying tet(44) resistance gene of 1516477 in presence of 5% lacked horse blood; assay type: functional
[6] = Antimicrobial activity against Campylobacter fetus subsp. fetus CA80 harboring ciprofloxacin-resistant gene and IMD523-06 pathogenicity island with tet(44) and ant(6)-Ib resistant marker gene in presence of 5% lacked horse blood; assay type: functional
[7] = Antimicrobial activity against kanamycin-resistant Campylobacter fetus subsp. fetus CA74 harboring deletion in tet(44)::pCA64 resistant gene in presence of 5% lacked horse blood; assay type: functional

## C[C@H]1c2cccc(O)c2C(=O)C2=C(O)[C@]3(O)C(=O)C(C(N)=O)=C(O)[C@@H](N(C)C)[C@@H]3[C@@H](O)[C@@H]21.O [DOXYCYCLINE]
[1]
  MIC: 8 µg/mL
[2]
  MIC: 8 µg/mL
[3]
  MIC: 0.5 µg/mL
[4]
  MIC: 0.5 µg/mL
[5]
  MIC: 32 µg/mL
[6]
  MIC: 4 µg/mL
[7]
  MIC: 0.5 µg/mL

## CN[C@@H]1[C@H](O[C@H]2[C@H](O[C@H]3[C@H](O)[C@@H](O)[C@H](N=C(N)N)[C@@H](O)[C@@H]3N=C(N)N)O[C@@H](C)[C@]2(O)C=O)O[C@@H](CO)[C@H](O)[C@H]1O [STREPTOMYCIN]
[1]
  MIC: > 64 µg/mL
[2]
  MIC: ≤ 1 µg/mL
[3]
  MIC: 64 µg/mL
[4]
  MIC: ≤ 1 µg/mL
[5]
  MIC: ≤ 1 µg/mL
[6]
  MIC: 64 µg/mL
[7]
  MIC: > 64 µg/mL

## CN(C)[C@@H]1C(O)=C(C(N)=O)C(=O)[C@@]2(O)C(O)=C3C(=O)c4c(O)cccc4[C@@](C)(O)[C@H]3C[C@@H]12 [TETRACYCLINE]
[1]
  MIC: 16 µg/mL
[2]
  MIC: 16 µg/mL
[3]
  MIC: 1 µg/mL
[4]
  MIC: 1 µg/mL
[5]
  MIC: > 32 µg/mL
[6]
  MIC: 16 µg/mL
[7]
  MIC: 1 µg/mL

## CN(C)c1ccc(O)c2c1C[C@H]1C[C@H]3[C@H](N(C)C)C(O)=C(C(N)=O)C(=O)[C@@]3(O)C(O)=C1C2=O [MINOCYCLINE]
[1]
  MIC: 16 µg/mL
[2]
  MIC: 16 µg/mL
[3]
  MIC: 1 µg/mL
[4]
  MIC: 1 µg/mL
[5]
  MIC: 32 µg/mL
[6]
  MIC: 16 µg/mL
[7]
  MIC: 2 µg/mL
